# Data: publication PMC7914897, “Cytotoxic Potential of a-Azepano- and 3-Amino-3,4-SeCo-Triterpenoids” (International Journal of Molecular Sciences, 2021)
# Assays:
# UACC-257 (Melanoma) = experiment: NCI-60 screen (SRB, 48 h); conditions: Homo sapiens
# SF-268 (CNS cancer) = experiment: NCI-60 screen (SRB, 48 h); conditions: Homo sapiens
# [1] = test system: NCI/ADR-RES (Ovarian cancer); experiment: NCI-60 screen (SRB, 48 h); conditions: Homo sapiens
# HL-60(TB) (Leukemia) = experiment: NCI-60 screen (SRB, 48 h); type: cell-based; conditions: Homo sapiens
# SK-MEL-28 (Melanoma) = experiment: NCI-60 screen (SRB, 48 h); conditions: Homo sapiens
# T-47D (Breast cancer) = experiment: NCI-60 screen (SRB, 48 h); conditions: Homo sapiens, T47D
# MALME-3M (Melanoma) = experiment: NCI-60 screen (SRB, 48 h); conditions: Homo sapiens
# K-562 (Leukemia) = experiment: NCI-60 screen (SRB, 48 h); conditions: Homo sapiens
# Prostate cancer subpanel = experiment: NCI-60 screen, subpanel; conditions: Homo sapiens
# KM12 (Colon cancer) = experiment: NCI-60 screen (SRB, 48 h); conditions: Homo sapiens
# [2] = test system: NCI-H522 (NSC lung cancer); experiment: NCI-60 screen (SRB, 48 h); conditions: Homo sapiens
# SK-MEL-5 (Melanoma) = experiment: NCI-60 screen (SRB, 48 h); conditions: Homo sapiens
# HT29 (Colon cancer) = experiment: NCI-60 screen (SRB, 48 h); conditions: Homo sapiens
# EKVX (NSC lung cancer) = experiment: NCI-60 screen (SRB, 48 h); conditions: Homo sapiens
# MDA-MB-435 (Melanoma) = experiment: NCI-60 screen (SRB, 48 h); type: cell-based
# RPMI-8226 (Leukemia) = experiment: NCI-60 screen (SRB, 48 h); conditions: Homo sapiens
# OVCAR-8 (Ovarian cancer) = experiment: NCI-60 screen (SRB, 48 h); conditions: Homo sapiens
# OVCAR-4 (Ovarian cancer) = experiment: NCI-60 screen (SRB, 48 h); type: cell-based; conditions: Homo sapiens
# CNS cancer subpanel = experiment: NCI-60 screen, subpanel; conditions: Homo sapiens
# HS 578T (Breast cancer) = experiment: NCI-60 screen (SRB, 48 h); conditions: Homo sapiens
# SR (Leukemia) = experiment: NCI-60 screen (SRB, 48 h); type: cell-based
# SF-539 (CNS cancer) = experiment: NCI-60 screen (SRB, 48 h); conditions: Homo sapiens
# 786-0 (Renal cancer) = experiment: NCI-60 screen (SRB, 48 h); conditions: Homo sapiens
smiles,measurement,setting,value
"CC1(C)NCCC[C@]2(C)[C@H]3C=CC4=C5C[C@@](C)(CO)CC[C@]5(C)CC[C@@]4(C)[C@]3(C)CC[C@@H]12 [Compound 6, azepano-glycyrrhetol-diene]",GI50,UACC-257 (Melanoma); UACC-257,5.24 µM
same,IC (TGI),"UACC-257 (Melanoma); UACC-257, 48 h, read-out: TGI",17 µM
same,CC50,"UACC-257 (Melanoma); UACC-257, read-out: LC50",43.8 µM
same,GI50,SF-268 (CNS cancer); SF-268,3.27 µM
same,IC (TGI),"SF-268 (CNS cancer); SF-268, 48 h, read-out: TGI",11.6 µM
same,CC50,"SF-268 (CNS cancer); SF-268, read-out: LC50",49.6 µM
same,GI50,[1],2.02 µM
same,IC (TGI),"[1]; 48 h, read-out: TGI",4.52 µM
same,CC50,[1]; read-out: LC50,10.4 µM
same,GI50,HL-60(TB) (Leukemia),2.63 µM
same,IC (TGI),HL-60(TB) (Leukemia); 48 h,7.02 µM
same,CC50,HL-60(TB) (Leukemia); read-out: LC50 (the source's name),32.6 µM
same,GI50,SK-MEL-28 (Melanoma); SK-MEL-28,5.87 µM
same,IC (TGI),"SK-MEL-28 (Melanoma); SK-MEL-28, 48 h, read-out: TGI",18.4 µM
same,CC50,"SK-MEL-28 (Melanoma); SK-MEL-28, read-out: LC50",44 µM
same,GI50,T-47D (Breast cancer),5.38 µM
same,IC (TGI),"T-47D (Breast cancer); 48 h, read-out: TGI",20.9 µM
same,CC50,T-47D (Breast cancer); read-out: LC50,59.5 µM
same,GI50,MALME-3M (Melanoma),2.64 µM
same,IC (TGI),"MALME-3M (Melanoma); 48 h, read-out: TGI",8.01 µM
same,CC50,MALME-3M (Melanoma); read-out: LC50,32.5 µM
same,GI50,K-562 (Leukemia); K562,3.18 µM
same,IC (TGI),"K-562 (Leukemia); K562, 48 h, read-out: TGI",10.8 µM
same,CC50,"K-562 (Leukemia); K562, read-out: LC50",43.8 µM
same,IC (TGI),"Prostate cancer subpanel; 48 h, read-out: TGI MG_MID",8.66 µM
same,GI50,Prostate cancer subpanel; read-out: GI50 MG_MID,2.65 µM
same,CC50,Prostate cancer subpanel; read-out: LC50 MG_MID,26.2 µM
same,GI50,KM12 (Colon cancer); KM12,6.09 µM
same,IC (TGI),"KM12 (Colon cancer); KM12, 48 h, read-out: TGI",20.3 µM
same,CC50,"KM12 (Colon cancer); KM12, read-out: LC50",55.1 µM
same,GI50,[2]; NCI-H522,2.38 µM
same,IC (TGI),"[2]; NCI-H522, 48 h, read-out: TGI",7.31 µM
same,CC50,"[2]; NCI-H522, read-out: LC50",31.7 µM
same,GI50,SK-MEL-5 (Melanoma); SK-MEL-5,2.14 µM
same,IC (TGI),"SK-MEL-5 (Melanoma); SK-MEL-5, 48 h, read-out: TGI",4.94 µM
same,CC50,"SK-MEL-5 (Melanoma); SK-MEL-5, read-out: LC50",14 µM
same,GI50,HT29 (Colon cancer); HT-29,3.25 µM
same,IC (TGI),"HT29 (Colon cancer); HT-29, 48 h, read-out: TGI",13.8 µM
same,CC50,"HT29 (Colon cancer); HT-29, read-out: LC50",41.8 µM
same,GI50,EKVX (NSC lung cancer),2.77 µM
same,IC (TGI),"EKVX (NSC lung cancer); 48 h, read-out: TGI",8.27 µM
same,CC50,EKVX (NSC lung cancer); read-out: LC50,38.4 µM
same,GI50,"MDA-MB-435 (Melanoma); Homo sapiens, MDA-MB-435",3.76 µM
same,IC (TGI),"MDA-MB-435 (Melanoma); Homo sapiens, MDA-MB-435, 48 h, read-out: TGI",14 µM
same,CC50,"MDA-MB-435 (Melanoma); Homo sapiens, MDA-MB-435, read-out: LC50 (the source's name)",43 µM
same,Growth % of the Most Sensitive Cell Lines,"MDA-MB-435 (Melanoma); MDA-MB-435, 1 dose 10 µM",−95.56%
same,GI50,RPMI-8226 (Leukemia); RPMI-8226,3.91 µM
same,IC (TGI),"RPMI-8226 (Leukemia); RPMI-8226, 48 h, read-out: TGI",14.9 µM
same,CC50,"RPMI-8226 (Leukemia); RPMI-8226, read-out: LC50",52.9 µM
same,GI50,OVCAR-8 (Ovarian cancer); OVCAR-8,2.55 µM
same,IC (TGI),"OVCAR-8 (Ovarian cancer); OVCAR-8, 48 h, read-out: TGI",6.66 µM
same,CC50,"OVCAR-8 (Ovarian cancer); OVCAR-8, read-out: LC50",30.8 µM
same,IC (TGI),"OVCAR-4 (Ovarian cancer); OVCAR-4, 48 h",20.8 µM
same,GI50,"OVCAR-4 (Ovarian cancer); OVCAR-4, read-out: GI50",5.63 µM
same,CC50,"OVCAR-4 (Ovarian cancer); OVCAR-4, read-out: LC50 (the source's name)",63.1 µM
same,IC (TGI),"CNS cancer subpanel; 48 h, read-out: TGI MG_MID",13.5 µM
same,GI50,CNS cancer subpanel; read-out: GI50 MG_MID,4.53 µM
same,CC50,CNS cancer subpanel; read-out: LC50 MG_MID,39.7 µM
same,GI50,HS 578T (Breast cancer),3.2 µM
same,IC (TGI),"HS 578T (Breast cancer); 48 h, read-out: TGI",13.2 µM
same,CC50,HS 578T (Breast cancer); read-out: LC50,71.2 µM
same,TGI,SR (Leukemia),7.17 µM
same,GI50,SR (Leukemia); Homo sapiens,2.42 µM
same,CC50,"SR (Leukemia); Homo sapiens, read-out: LC50 (the source's name)",> 100 µM
same,GI50,SF-539 (CNS cancer); SF-539,2.69 µM
same,IC (TGI),"SF-539 (CNS cancer); SF-539, 48 h, read-out: TGI",9.26 µM
same,CC50,"SF-539 (CNS cancer); SF-539, read-out: LC50",33 µM
same,GI50,786-0 (Renal cancer); 786-0,2.66 µM
same,IC (TGI),"786-0 (Renal cancer); 786-0, 48 h, read-out: TGI",8.59 µM
same,CC50,"786-0 (Renal cancer); 786-0, read-out: LC50",40.9 µM
